From patent US6673039B1, “Compositions, kits, methods, and apparatus for transvascular delivery of a composition to an extravascular tissue of a mammal” (Trustees of the University of Pennsylvania, priority 1997, dated 2004)

Tested on: skeletal muscle capillaries
Test: Microvascular perfusion viewed in real time through a dissecting microscope after topical application
Type: in vivo, mouse
Text: Newborn mice pups were anesthetized after feeding to ensure a stomach filled with milk, for the purpose of providing optical contrast. […] Histamine, papaverine, or both, dissolved in PBS, were applied topically to the capillaries. Video recordings were made against a time line with an attached camera.

Row | SMILES | effect on microvascular perfusion (10 millimolar) | effect on microvascular perfusion (300 micrograms per milliliter)
1 | NCCc1c[nH]cn1 [histamine] | rapidly induced vasodilation, and was followed within seconds by progressive capillary stasis | –
2 | COc1ccc(Cc2nccc3cc(OC)c(OC)cc23)cc1OC [papaverine] | – | capillary recruitment and increased local perfusion
